Experimental data taken from the kinase profiling compilation of Christmann-Franck et al. (2016).

Key:
Test in all cases: radiometric filter-binding kinase assay, Kinase HotSpot
Conditions in all cases: compound 0.5 µM; ATP 10 µM
PAK4 (human) = PAK4 (human) (UniProt O96013)
CDK3 CCNE1 (human) = CDK3 CCNE1 (human) (UniProt Q00526+P24864)
CLK3 (human) = CLK3 (human) (UniProt P49761)
IKBKE (human) = IKBKE (human) (UniProt Q14164)
EPHB1 (human) = EPHB1 (human) (UniProt P54762)
IGF1R (human) = IGF1R (human) (UniProt P08069)
MLTK (human) = MLTK (human) (UniProt Q9NYL2)
PRKCI (human) = PRKCI (human) (UniProt P41743)
MAPKAPK2 (human) = MAPKAPK2 (human) (UniProt P49137)
PRKG2 (human) = PRKG2 (human) (UniProt Q13237)
STK17A (human) = STK17A (human) (UniProt Q9UEE5)
STK17A (human), sequence (Q9UEE5 whole entry, looked up): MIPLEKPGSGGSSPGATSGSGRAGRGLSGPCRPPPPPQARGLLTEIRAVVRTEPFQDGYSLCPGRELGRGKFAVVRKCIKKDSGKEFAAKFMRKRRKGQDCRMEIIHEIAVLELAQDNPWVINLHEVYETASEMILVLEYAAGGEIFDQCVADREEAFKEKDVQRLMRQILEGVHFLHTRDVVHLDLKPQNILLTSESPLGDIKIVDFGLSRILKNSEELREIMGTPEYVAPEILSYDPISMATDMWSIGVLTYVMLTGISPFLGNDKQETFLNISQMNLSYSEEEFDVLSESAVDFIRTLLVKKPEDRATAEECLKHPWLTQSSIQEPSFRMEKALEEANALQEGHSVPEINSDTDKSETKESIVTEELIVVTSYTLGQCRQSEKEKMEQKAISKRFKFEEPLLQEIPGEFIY

PRKCB2 (human) = PRKCB2 (human) (UniProt P05771)
RPS6KB1 (human) = RPS6KB1 (human) (UniProt P23443)
EPHA3 (human) = EPHA3 (human) (UniProt P29320)
DYRK1B (human) = DYRK1B (human) (UniProt Q9Y463)
PLK3 (human) = PLK3 (human) (UniProt Q9H4B4)
CSNK1E (human) = CSNK1E (human) (UniProt P49674)
TYRO3 (human) = TYRO3 (human) (UniProt Q06418)
ROCK1 (human) = ROCK1 (human) (UniProt Q13464)
STK33 (human) = STK33 (human) (UniProt Q9BYT3)
ADRBK1 (human) = ADRBK1 (human) (UniProt P25098)
CSNK2A1 (human) = CSNK2A1 (human) (UniProt P68400)
MAP4K2 (human) = MAP4K2 (human) (UniProt Q12851)
MAP4K2 (human), sequence (Q12851 whole entry, looked up): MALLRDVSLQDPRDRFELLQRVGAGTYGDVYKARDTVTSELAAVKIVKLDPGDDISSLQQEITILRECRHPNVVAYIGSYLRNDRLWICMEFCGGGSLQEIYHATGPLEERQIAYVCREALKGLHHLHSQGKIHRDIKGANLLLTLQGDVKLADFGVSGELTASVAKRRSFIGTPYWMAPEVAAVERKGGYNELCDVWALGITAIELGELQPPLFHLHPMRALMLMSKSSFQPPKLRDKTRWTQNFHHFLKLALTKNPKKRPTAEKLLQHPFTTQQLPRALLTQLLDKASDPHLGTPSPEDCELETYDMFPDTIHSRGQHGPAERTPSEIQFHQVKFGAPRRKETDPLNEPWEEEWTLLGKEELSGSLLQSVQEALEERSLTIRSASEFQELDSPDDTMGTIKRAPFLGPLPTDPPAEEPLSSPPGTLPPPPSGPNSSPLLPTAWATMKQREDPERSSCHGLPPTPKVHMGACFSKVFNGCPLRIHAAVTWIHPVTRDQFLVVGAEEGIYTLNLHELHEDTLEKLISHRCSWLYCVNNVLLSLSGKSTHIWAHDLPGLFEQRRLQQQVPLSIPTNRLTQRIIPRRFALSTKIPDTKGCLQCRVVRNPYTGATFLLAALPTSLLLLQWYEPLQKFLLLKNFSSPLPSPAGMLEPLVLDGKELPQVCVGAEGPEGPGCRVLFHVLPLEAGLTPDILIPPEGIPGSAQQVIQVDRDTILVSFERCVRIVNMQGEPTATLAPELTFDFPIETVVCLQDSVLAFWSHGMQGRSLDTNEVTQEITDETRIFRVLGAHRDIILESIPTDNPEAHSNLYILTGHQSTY

NEK2 (human) = NEK2 (human) (UniProt P51955)
MAP3K11 (human) = MAP3K11 (human) (UniProt Q16584)
MYLK2 (human) = MYLK2 (human) (UniProt Q9H1R3)
PRKCA (human) = PRKCA (human) (UniProt P17252)
EPHA7 (human) = EPHA7 (human) (UniProt Q15375)
JAK3 JH1 JH2 (human) = JAK3 JH1 JH2 (human) (UniProt P52333)
TBK1 (human) = TBK1 (human) (UniProt Q9UHD2)
MUSK (human) = MUSK (human) (UniProt O15146)
MAP3K5 (human) = MAP3K5 (human) (UniProt Q99683)
FYN (human) = FYN (human) (UniProt P06241)
CSNK1A1 (human) = CSNK1A1 (human) (UniProt P48729)
ERBB2 (human) = ERBB2 (human) (UniProt P04626)
FGR (human) = FGR (human) (UniProt P09769)
PBK (human) = PBK (human) (UniProt Q96KB5)
CAMKK1 (human) = CAMKK1 (human) (UniProt Q8N5S9)
CAMKK1 (human), sequence (Q8N5S9 whole entry, looked up): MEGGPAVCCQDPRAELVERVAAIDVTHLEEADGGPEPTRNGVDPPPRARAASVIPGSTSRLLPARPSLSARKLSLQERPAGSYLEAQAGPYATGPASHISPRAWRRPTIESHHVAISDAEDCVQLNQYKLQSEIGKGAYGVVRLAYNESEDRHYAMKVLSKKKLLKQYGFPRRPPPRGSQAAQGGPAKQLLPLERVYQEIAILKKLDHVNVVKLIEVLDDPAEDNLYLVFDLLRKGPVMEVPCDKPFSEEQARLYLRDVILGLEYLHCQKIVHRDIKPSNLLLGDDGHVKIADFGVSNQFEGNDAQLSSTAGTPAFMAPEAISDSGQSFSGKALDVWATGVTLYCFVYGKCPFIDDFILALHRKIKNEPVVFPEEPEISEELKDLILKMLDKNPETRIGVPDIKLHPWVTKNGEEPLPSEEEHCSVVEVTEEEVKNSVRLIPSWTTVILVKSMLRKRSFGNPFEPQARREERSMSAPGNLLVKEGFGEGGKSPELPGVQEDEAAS

IKBKB (human) = IKBKB (human) (UniProt O14920)
IKBKB (human), sequence (O14920 whole entry, looked up): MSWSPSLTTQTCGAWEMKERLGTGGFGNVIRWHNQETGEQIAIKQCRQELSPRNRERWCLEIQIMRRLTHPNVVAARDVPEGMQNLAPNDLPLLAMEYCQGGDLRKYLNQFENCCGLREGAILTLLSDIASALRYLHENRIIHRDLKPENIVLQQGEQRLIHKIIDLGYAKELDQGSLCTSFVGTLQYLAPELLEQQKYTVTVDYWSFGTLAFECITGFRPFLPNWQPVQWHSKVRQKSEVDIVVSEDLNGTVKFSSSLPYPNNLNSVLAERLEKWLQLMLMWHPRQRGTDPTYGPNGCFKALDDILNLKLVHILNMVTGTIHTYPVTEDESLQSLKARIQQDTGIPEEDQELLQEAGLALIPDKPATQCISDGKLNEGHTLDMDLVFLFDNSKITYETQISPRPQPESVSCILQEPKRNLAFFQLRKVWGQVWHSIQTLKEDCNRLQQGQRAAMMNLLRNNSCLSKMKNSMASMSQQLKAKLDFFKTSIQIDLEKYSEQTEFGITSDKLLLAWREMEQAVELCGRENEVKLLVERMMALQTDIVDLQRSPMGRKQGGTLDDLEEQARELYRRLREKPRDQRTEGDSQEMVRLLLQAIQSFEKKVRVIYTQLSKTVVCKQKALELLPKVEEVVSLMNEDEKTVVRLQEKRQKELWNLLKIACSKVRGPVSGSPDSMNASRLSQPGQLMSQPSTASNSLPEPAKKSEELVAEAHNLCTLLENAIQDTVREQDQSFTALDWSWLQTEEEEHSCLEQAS

MST1R (human) = MST1R (human) (UniProt Q04912)
PKN2 (human) = PKN2 (human) (UniProt Q16513)
RIPK2 (human) = RIPK2 (human) (UniProt O43353)
RIPK2 (human), sequence (O43353 whole entry, looked up): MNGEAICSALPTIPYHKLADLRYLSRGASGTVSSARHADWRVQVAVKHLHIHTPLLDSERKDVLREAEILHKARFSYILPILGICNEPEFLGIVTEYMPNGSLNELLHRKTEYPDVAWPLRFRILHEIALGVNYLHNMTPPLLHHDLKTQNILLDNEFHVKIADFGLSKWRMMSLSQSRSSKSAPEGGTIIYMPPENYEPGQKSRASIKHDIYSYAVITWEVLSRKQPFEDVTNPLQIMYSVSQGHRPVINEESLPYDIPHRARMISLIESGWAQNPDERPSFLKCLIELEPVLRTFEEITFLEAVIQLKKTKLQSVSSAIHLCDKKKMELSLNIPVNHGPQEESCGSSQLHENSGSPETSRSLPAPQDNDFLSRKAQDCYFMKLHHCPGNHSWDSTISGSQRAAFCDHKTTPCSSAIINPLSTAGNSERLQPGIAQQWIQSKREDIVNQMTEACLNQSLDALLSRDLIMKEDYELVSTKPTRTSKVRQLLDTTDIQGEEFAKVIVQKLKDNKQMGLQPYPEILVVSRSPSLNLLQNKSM

IKBKE (human), sequence (Q14164 whole entry, looked up): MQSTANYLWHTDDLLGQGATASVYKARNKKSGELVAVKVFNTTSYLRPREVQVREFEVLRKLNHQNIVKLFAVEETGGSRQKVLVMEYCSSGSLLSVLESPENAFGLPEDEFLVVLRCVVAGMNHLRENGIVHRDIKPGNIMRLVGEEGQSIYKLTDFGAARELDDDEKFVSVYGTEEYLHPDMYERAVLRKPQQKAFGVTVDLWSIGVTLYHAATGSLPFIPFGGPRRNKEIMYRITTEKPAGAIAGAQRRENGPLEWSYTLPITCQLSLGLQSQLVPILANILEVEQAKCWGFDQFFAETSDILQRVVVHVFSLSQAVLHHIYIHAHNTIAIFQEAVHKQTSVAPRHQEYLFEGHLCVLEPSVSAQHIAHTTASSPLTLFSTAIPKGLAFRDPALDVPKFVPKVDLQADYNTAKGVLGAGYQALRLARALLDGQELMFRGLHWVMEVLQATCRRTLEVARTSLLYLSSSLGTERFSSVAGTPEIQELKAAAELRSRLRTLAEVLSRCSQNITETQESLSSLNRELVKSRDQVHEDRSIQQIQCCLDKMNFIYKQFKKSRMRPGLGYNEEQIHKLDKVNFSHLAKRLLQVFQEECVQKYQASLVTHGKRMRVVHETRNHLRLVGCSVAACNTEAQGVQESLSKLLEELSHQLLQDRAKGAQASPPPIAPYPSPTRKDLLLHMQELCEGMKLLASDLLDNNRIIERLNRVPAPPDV
EPHB1 (human), sequence (P54762 whole entry, looked up): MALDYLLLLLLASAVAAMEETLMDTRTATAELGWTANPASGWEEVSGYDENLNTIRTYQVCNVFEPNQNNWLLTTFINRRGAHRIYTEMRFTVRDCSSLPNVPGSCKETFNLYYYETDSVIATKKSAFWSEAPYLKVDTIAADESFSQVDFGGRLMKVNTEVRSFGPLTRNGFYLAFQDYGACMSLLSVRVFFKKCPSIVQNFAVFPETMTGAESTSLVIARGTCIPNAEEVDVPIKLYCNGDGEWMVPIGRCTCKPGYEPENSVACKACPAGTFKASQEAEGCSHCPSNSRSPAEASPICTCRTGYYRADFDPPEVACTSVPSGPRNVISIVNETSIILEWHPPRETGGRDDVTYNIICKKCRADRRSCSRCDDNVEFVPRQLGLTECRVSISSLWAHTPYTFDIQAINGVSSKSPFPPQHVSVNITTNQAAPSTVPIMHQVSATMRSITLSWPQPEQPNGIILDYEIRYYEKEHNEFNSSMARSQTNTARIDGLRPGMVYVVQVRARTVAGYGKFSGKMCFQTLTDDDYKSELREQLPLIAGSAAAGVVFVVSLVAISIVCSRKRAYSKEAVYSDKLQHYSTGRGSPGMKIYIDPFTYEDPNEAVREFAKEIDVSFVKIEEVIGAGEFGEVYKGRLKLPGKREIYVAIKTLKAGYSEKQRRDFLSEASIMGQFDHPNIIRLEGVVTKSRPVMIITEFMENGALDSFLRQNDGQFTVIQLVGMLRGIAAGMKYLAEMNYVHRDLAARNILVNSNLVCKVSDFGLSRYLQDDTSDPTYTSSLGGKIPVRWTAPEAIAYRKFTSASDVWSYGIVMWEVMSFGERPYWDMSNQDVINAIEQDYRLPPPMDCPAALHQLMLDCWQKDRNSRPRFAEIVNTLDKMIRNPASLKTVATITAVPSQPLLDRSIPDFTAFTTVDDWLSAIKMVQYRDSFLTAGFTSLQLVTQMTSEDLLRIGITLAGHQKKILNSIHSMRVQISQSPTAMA

O=C1Nc2ccccc2/C1=C\c1c(Cl)[nH]c2ccccc12
residual activity (PAK4 (human)): 104% | residual activity (CDK3 CCNE1 (human)): 94.1% | residual activity (CLK3 (human)): 102% | residual activity (IKBKE (human)): 98% | residual activity (EPHB1 (human)): 90.8% | residual activity (IGF1R (human)): 105% | residual activity (MLTK (human)): 99.2% | residual activity (PRKCI (human)): 99.2% | residual activity (MAPKAPK2 (human)): 101% | residual activity (PRKG2 (human)): 71.7% | residual activity (STK17A (human)): 95.2% | residual activity (PRKCB2 (human)): 92.6% | residual activity (RPS6KB1 (human)): 99.7% | residual activity (EPHA3 (human)): 95.1% | residual activity (DYRK1B (human)): 99.3% | residual activity (PLK3 (human)): 101% | residual activity (CSNK1E (human)): 87.8% | residual activity (TYRO3 (human)): 99.4% | residual activity (ROCK1 (human)): 101% | residual activity (STK33 (human)): 105% | residual activity (ADRBK1 (human)): 98.9% | residual activity (CSNK2A1 (human)): 89.4% | residual activity (MAP4K2 (human)): 97.9% | residual activity (NEK2 (human)): 99% | residual activity (MAP3K11 (human)): 100% | residual activity (MYLK2 (human)): 94.6% | residual activity (PRKCA (human)): 63.2% | residual activity (EPHA7 (human)): 95.3% | residual activity (JAK3 JH1 JH2 (human)): 102% | residual activity (TBK1 (human)): 95.9% | residual activity (MUSK (human)): 96.4% | residual activity (MAP3K5 (human)): 107% | residual activity (FYN (human)): 101% | residual activity (CSNK1A1 (human)): 102% | residual activity (ERBB2 (human)): 97.3% | residual activity (FGR (human)): 90.5% | residual activity (PBK (human)): 102% | residual activity (CAMKK1 (human)): 116% | residual activity (IKBKB (human)): 106% | residual activity (MST1R (human)): 97.5% | residual activity (PKN2 (human)): 96.3% | residual activity (RIPK2 (human)): 85.4%

O=c1cc(N2CCNCC2)oc2c(-c3ccccc3)cccc12
residual activity (PAK4 (human)): 81.1% | residual activity (CDK3 CCNE1 (human)): 96.9% | residual activity (CLK3 (human)): 109% | residual activity (IKBKE (human)): 88.1% | residual activity (EPHB1 (human)): 94.8% | residual activity (IGF1R (human)): 103% | residual activity (MLTK (human)): 103% | residual activity (PRKCI (human)): 105% | residual activity (MAPKAPK2 (human)): 103% | residual activity (PRKG2 (human)): 107% | residual activity (STK17A (human)): 98.4% | residual activity (PRKCB2 (human)): 101% | residual activity (RPS6KB1 (human)): 102% | residual activity (EPHA3 (human)): 88.5% | residual activity (DYRK1B (human)): 99.2% | residual activity (PLK3 (human)): 104% | residual activity (CSNK1E (human)): 101% | residual activity (TYRO3 (human)): 107% | residual activity (ROCK1 (human)): 104% | residual activity (STK33 (human)): 86.1% | residual activity (ADRBK1 (human)): 109% | residual activity (CSNK2A1 (human)): 89.9% | residual activity (MAP4K2 (human)): 87.6% | residual activity (NEK2 (human)): 86% | residual activity (MAP3K11 (human)): 97.8% | residual activity (MYLK2 (human)): 97.3% | residual activity (PRKCA (human)): 99.1% | residual activity (EPHA7 (human)): 102% | residual activity (JAK3 JH1 JH2 (human)): 96.9% | residual activity (TBK1 (human)): 98.7% | residual activity (MUSK (human)): 103% | residual activity (MAP3K5 (human)): 106% | residual activity (FYN (human)): 104% | residual activity (CSNK1A1 (human)): 104% | residual activity (ERBB2 (human)): 95.5% | residual activity (FGR (human)): 99.9% | residual activity (PBK (human)): 124% | residual activity (CAMKK1 (human)): 105% | residual activity (IKBKB (human)): 103% | residual activity (MST1R (human)): 96% | residual activity (PKN2 (human)): 99.5% | residual activity (RIPK2 (human)): 82.9%
